The text below walks through data of paper PMC6754136 (PLoS ONE, 2019).

Structures are written as SMILES. “Also recorded” adds a separate entry of the source. Read-outs that look alike come from different tables or passages of the source.

Series [1] has as its system human PDE5. Particulars: PDE5, competitive inhibitors; cited from earlier work.
Series [2] concerns the target purified recombinant human PDE5 (Homo sapiens, UniProt O76074). Nature of the series: in vitro PDE5 inhibition assay measuring GMP production from cGMP (HPLC-UV-MS). Type of series: biochemical. The conditions noted are these: for fold increase in potency compared to the corresponding unglycosylated analog: 3 vs 6, 5 vs 8; for Fold improved potency (fold change in IC50 compared to icariin): relative to icariin. How it is done: STRENDA guidelines were considered in the description of the following enzyme activity assays. PDE5 inhibition and kinetics assays were carried out according to the method of Kincaid and Manganiello [31] and Dell’Agli et al. 1 nM recombinant human PDE5 (catalytic domain consisting of amino acids 537–875, Abcam, ab125581) was pre-incubated with PDE5 inhibitors (synthesized in-house as described above or purchased from Selleck Chemicals) in 40 mM tris-hydrochloric acid, pH 7.8, containing 10 mM MgCl2. […]. PDE5 inhibitors were added to each reaction using a Hewlett-Packard D300 Digital Dispenser (Tecan). Maximum DMSO concentration was 0.1% of the final reaction volume for all samples. After incubation at 25 °C for 5 minutes to allow interaction between PDE5 and drugs, the reaction was started with the addition of 0.3 μM cGMP (Enzo Life Sciences, Inc.) and incubated at 25 °C for 15 minutes. The final reaction volume was 100 μL. Reactions were stopped with the addition of 100 μL of 0.1 M HCl and neutralized by adding 0.1 M NaOH until the pH was 7. […] The amount of GMP produced was measured by HPLC-UV-MS as described in the general procedures. Reaction mixture components were separated with a ramp gradient of solvent A and B run at a flow rate of 0.5 mL/min as follows: 0–4 minutes 0% B, 4–7 minutes 0–95% B, 7–8 minutes 95% B, 8–11.1 minutes 0% B. GMP was measured using selected reaction monitoring in positive mode for a centroid center mass of 152.
A calibration curve using known concentrations of GMP was generated using the HPLC-UV-MS method described above to quantify the absolute amount of GMP in each reaction (S13 Fig). The linear range was from 5.9 nM to 3 μM. The limit of detection (LOD), defined as the lowest concentration producing a detectable peak above background, was 0.1 nM. The lower limit of quantification (LLOQ), defined as the lowest concentration used to generate a standard curve with r^2 > 0.95, was 5.9 nM. The upper limit of quantification (ULOQ), defined as the highest concentration used to generate a standard curve with r^2 > 0.95, was 3 μM. A GMP calibration curve was generated with each individual run of the HPLC-UV-MS.
To measure the IC50 as a result of treatment with each icariin analog, the in vitro inhibition enzyme assay as described above was performed, and GMP levels were normalized to no-drug controls and multiplied by 100 to obtain the percent PDE5 activity. IC50 mean ± SEM values were determined by nonlinear-regression fitting of the percent PDE5 activity data using the [inhibitor] vs response–variable slope (four parameters) equation in Prism (version 7.0a and version 8). Top value was constrained to 100, all other parameters were unconstrained. To obtain the dose-response curves for visual confirmation of the best-fit line, we executed a nonlinear regression fitting using the log(inhibitor) vs. response—variable slope (four parameters) equation in Prism. […] AICc analysis (built into Prism) was used to confirm the best-fitting inhibition model. […] Inhibition models were also compared via visual inspection of the fit of the calculated curves on the Michaelis-Menten plots.

The nature of series [3]: mitochondrial viability assay with resazurin. It is filed as cell-based, human. The conditions noted are these: human, 0.01–10 μM; for viability at 3 days, 10 μM: four cell lines, even at the highest concentration tested (10 μM); for viability at 3 days: marked reduction in at least one cell line. How it is done: The human cell lines SH-SY5Y (SY5Y, ATCC CRL-2266), SK-MEL-5 (SKMEL-5, ATCC HTB-70), and NCI-H187 (H187, ATCC CRL-5804) were cultured in RPMI medium supplemented with 10% FBS and no antibiotics. These three cell lines were generously provided by the laboratory of Susan Lindquist via Luke Whitesell (currently at the University of Toronto, Toronto, ON, Canada). BJ-hTERT (described in [27], generously provided by Robert Weinberg, Whitehead Institute, Cambridge MA, USA) was cultured in 4:1 DMEM:M199 medium supplemented with 15% FBS and no antibiotics. All cell lines were grown and assayed at 37 °C, 5% CO2. All cell lines were screened for mycoplasma contamination by PCR (Mycoscope Detection Kit, Fisher Scientific) before use in assays.
For viability assays, cells were plated in black, clear bottom 384-well tissue culture-treated plates (Corning) and incubated overnight in the media described above but supplemented with 50 U/mL penicillin-streptomycin antibiotic (Life Technologies). Then, DMSO (no drug controls) and PDE5 inhibitors (0.01–10 μM; synthesized as described above or purchased from Selleck Chemicals) were added using a Hewlett-Packard D300 Digital Dispenser (Tecan) and incubated for 3 days. Maximum DMSO concentration was normalized to 0.1% of the total well volume for all wells. Resazurin (R & D Systems) was diluted 1:20 into each well and incubated for up to 4 hours. Fluorescence was read in a Tecan plate reader (excitation = 570 nm, emission = 585 nm). Wells treated with PDE5 inhibitors were normalized against control wells treated with DMSO to measure percent mitochondrial viability (100 = no effect on mitochondrial viability).
(In general: The colour change of resazurin is a common sign of viable cells or microbes.)

For series [4], the target named is T1, bovine trypsin (Bos taurus, UniProt P00760).
T1 construct: purchased Sigma-Aldrich T1426
T1 sequence (P00760 24-246): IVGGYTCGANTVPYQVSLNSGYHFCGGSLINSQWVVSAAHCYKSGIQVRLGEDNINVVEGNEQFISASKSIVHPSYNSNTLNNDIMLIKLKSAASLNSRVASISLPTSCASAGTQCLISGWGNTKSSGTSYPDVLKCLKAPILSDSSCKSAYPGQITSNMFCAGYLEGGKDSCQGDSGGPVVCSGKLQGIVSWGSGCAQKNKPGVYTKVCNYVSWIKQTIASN
Nature of the series: PAINS assay: non-specific inhibition of trypsin. Particulars: 1x and 10x the PDE5 IC50 (3 and 7 also 50x, 250x); luteolin 50, 100, 250 μM. Type of series: biochemical. How it is done: In assay buffer (50 mM Tris-HCl, 20 mM CaCl2, pH 8.19 with or without 0.5% igepal), 0.002 mg freshly made trypsin is incubated with drugs for 5 minutes at 25 °C. 1 mM of substrate (Nα-benzoyl-L-arginine 4-nitroanilide hydrochloride, Sigma-Aldrich, B3133) is added to start the reaction. Final reaction volume is 100 μl. Product formation is monitored by increasing absorbance at 410 nm at 25 °C for 30 minutes in kinetic mode using a SpectraMax M5 plate reader (Molecular Devices). All values were measured in duplicate.

The target of series [5] is recombinant human PDE5 (Homo sapiens, UniProt O76074). In words: in vitro PDE5 kinetics assay (nonlinear regression, AICc model comparison). It is filed as biochemical. How it is done: guidelines were considered in the description of the following enzyme activity assays. […] For kinetics assays, 0.015, 0.05, and 0.2 μM of compounds 3 and 7 were used. […] Maximum DMSO concentration was 0.1% of the final reaction volume for all samples. […] The final reaction volume was 100 μL. Reactions were stopped with the addition of 100 μL of 0.1 M HCl and neutralized by adding 0.1 M NaOH until the pH was 7. […] Reaction mixture components were separated with a ramp gradient of solvent A and B run at a flow rate of 0.5 mL/min as follows: 0-4 minutes 0% B, 4-7 minutes 0-95% B, 7-8 minutes 95% B, 8-11.1 minutes 0% B. GMP was measured using selected reaction monitoring in positive mode for a centroid center mass of 152. […] Top value was constrained to 100, all other parameters were unconstrained. To obtain the dose-response curves for visual confirmation of the best-fit line, we executed a nonlinear regression fitting using the log(inhibitor) vs. response-variable slope (four parameters) equation in Prism. […] AICc analysis (built into Prism) was used to confirm the best-fitting inhibition model. […] Inhibition models were also compared via visual inspection of the fit of the calculated curves on the Michaelis-Menten plots.

Series [6] has as its target T2, partially purified recombinant human PDE6C (Homo sapiens, UniProt P51160).
T2 construct: partially purified recombinant full-length human PDE6C; purchased SB Drug Discovery; host or cells: insect cells
Nature of the series: PDE6C inhibition assay (GMP production). Type of series: biochemical. How it is done: PDE6C inhibition was measured using the same method as described for PDE5 with modifications. […] The final reaction volume was 50 μL. […] Reactions were stopped as described above for PDE5 enzyme assays, and GMP was quantified as described above. […] The amount of GMP produced in these samples was subtracted from all samples before normalizing against untreated controls.

Series [7] has as its system BJ-hTERT cells. Nature of the series: cellular GMP levels after inhibitor treatment. Type of series: cell-based, human. Particulars: 20 μM inhibitor, 1 hour; mean ± SEM; p<0.001. As to the method: For assaying PDE5 inhibitor effects on GMP levels in a cell line, BJ-hTERT cells were plated in 6-well plates (Corning) in the media described above. When cells were 80% confluent, fresh, pre-warmed media with DMSO (untreated controls) or 20 μM sildenafil, 3, or 7 was added and incubated for 1 hour. Maximum DMSO concentration in all samples was 0.2% of the total well volume. Cells were washed once with cold 0.9% NaCl. 800 μL of 80:20 methanol:water spiked with 500 nM isotopically labeled amino acids as internal standards was added while cells were on dry ice. Cells were detached with a cell scraper. Extracts were vortexed for 10 minutes and centrifuged at maximum speed at 4 °C to remove debris. Extracts were dried down in a vacuum dryer and stored at -80 °C. An additional sample was reserved for visual inspection of cell health by confocal light microscopy and for cell counting with a hemocytometer. Three independent assays were conducted in total, with 1–2 replicates per assay. To analyze GMP levels, samples were reconstituted in 50 μL LC-MS grade water and analyzed by HPLC-UV-MS as described in the general procedures and for enzyme inhibition and kinetics assays. The amino acid standards were analyzed in full scan positive mode with mass windows m/z 50–800. GMP peak areas were normalized to the peak area of the internal standard ^13C4, ^15N-threonine or ^13C6, ^15N3-histidine to account for variations in extraction or resuspension volume. The peak areas were then normalized to the average GMP peak area in undrugged controls and multiplied by 100 to obtain the percent GMP.

Setting [8] is: 1 nM PDE5 catalytic domain, 0.3 μM cGMP, 25 °C, 15 min, mean of at least three replicates ± SEM, read-out: IC50.

T2 sequence (P51160 whole entry): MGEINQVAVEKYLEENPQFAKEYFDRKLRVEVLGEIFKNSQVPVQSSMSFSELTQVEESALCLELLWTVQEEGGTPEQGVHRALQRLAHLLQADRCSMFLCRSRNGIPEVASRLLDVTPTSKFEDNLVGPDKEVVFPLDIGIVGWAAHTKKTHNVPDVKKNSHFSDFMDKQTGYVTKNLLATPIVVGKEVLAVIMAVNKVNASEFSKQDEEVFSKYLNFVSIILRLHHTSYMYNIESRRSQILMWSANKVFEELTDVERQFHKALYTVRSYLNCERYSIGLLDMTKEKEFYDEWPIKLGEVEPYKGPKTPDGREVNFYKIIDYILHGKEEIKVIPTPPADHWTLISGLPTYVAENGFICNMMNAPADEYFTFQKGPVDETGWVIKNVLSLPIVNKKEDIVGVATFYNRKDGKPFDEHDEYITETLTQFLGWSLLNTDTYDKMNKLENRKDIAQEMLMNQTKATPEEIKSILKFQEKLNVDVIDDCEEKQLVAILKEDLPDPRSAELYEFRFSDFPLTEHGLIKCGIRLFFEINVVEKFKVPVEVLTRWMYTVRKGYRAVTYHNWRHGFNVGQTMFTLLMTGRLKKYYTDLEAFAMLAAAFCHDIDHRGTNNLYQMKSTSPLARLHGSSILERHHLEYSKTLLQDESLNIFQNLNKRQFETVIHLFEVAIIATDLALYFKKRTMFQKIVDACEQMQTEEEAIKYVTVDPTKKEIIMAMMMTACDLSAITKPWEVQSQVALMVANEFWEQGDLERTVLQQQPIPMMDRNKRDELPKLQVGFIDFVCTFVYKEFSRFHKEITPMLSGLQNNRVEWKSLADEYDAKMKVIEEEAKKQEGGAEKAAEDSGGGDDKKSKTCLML

`CN1CC(=O)N2[C@H](c3ccc4c(c3)OCO4)c3[nH]c4ccccc4c3C[C@@H]2C1=O` [tadalafil]: the half-maximal inhibitory concentration (IC50) in series [1] is […].
For the compound `COc1ccc(-c2oc3c(CC=C(C)C)c(OC4OC(CO)C(O)C(O)C4O)cc(O)c3c(=O)c2OCC(C)O)cc1` (stereo not shown) [Compound 5, 3-O-(2-Hydroxypropyl)-Icariside I], in series [2], the “fold increase in potency compared to the corresponding unglycosylated analog” value is 3 fold and the “Fold improved potency (fold change in IC50 compared to icariin)” value is given as 12 fold. Also, the viability at 3 days, 10 μM in series [3] is over 70%.
Consider `COc1ccc(-c2oc3c(CC=C(C)C)c(O[C@@H]4O[C@H](CO)[C@@H](O)[C@H](O)[C@H]4O)cc(O)c3c(=O)c2O)cc1` [Compound 2, Icariside I], for which the IC50 in series [2] (setting [8]) came to 2100 ± 800 nM. Besides, the “Fold improved potency (fold change in IC50 compared to icariin)” value in series [2] came out at 3 fold. Besides, in series [3], the viability at 3 days is at most 70%.
As to `O=c1cc(-c2ccc(O)c(O)c2)oc2cc(O)cc(O)c12` [luteolin, reference compound], in series [4], the “inhibition of trypsin activity” value was “statistically significant inhibition of trypsin activity (p<0.001)”.
In the case of `COc1ccc(-c2oc3c(CC=C(C)C)c(OC4OC(CO)C(O)C(O)C4O)cc(O)c3c(=O)c2OCCO)cc1` (stereo not shown) [Compound 3, 3-O-(2-Hydroxyethyl)-Icariside I], the Preferred model result in series [5] (AICc comparison of competitive vs noncompetitive inhibition) and in series [5] (AICc comparison of competitive vs uncompetitive inhibition) was “Competitive inhibition” each time. Further, the “probability that the competitive inhibition model is correct” value in series [5] (AICc, compared to a noncompetitive or uncompetitive model) is recorded as over 99%. Further, the “Probability it is correct (competitive inhibition)” value in series [5] (AICc, competitive vs noncompetitive inhibition) is reported as 99.97%; in series [5] (AICc, competitive vs uncompetitive inhibition), over 99.99%. The mode of inhibition entry in series [5] (Lineweaver-Burk plot and AICc analysis) was “competitive inhibitor; also recorded: inhibits PDE5 competitively”. The “fold increase in potency compared to the corresponding unglycosylated analog” value in series [2] amounted to 5 fold. This compound yielded a viability at 3 days, 10 μM in series [3] of over 70%. Moreover, the “specificity for PDE5 over PDE6C” value in series [6] is “shows specificity for PDE5 over PDE6C”. Moreover, in series [6] (at 50x the PDE5 IC50, vs theoretical uninhibited mean of 100%), the “PDE6C inhibition, statistical significance” value is on record as “do not show any statistically significant PDE6C inhibition”. Further, in series [7], the “cellular GMP concentration, % of the GMP concentration in untreated control cells” value came out at 9 ± 0.6%.
In the case of `COc1ccc(-c2oc3c(CC=C(C)C)c(O)cc(O)c3c(=O)c2OCC(C)O)cc1` (stereo not shown) [Compound 8, 3-O-(2-Hydroxypropyl)-Icaritin], in series [2] (setting [8]), the IC50 turned out to be 1500 ± 600 nM. For the same compound, the “Fold improved potency (fold change in IC50 compared to icariin)” value in series [2] is 4 fold.
Take `COc1ccc(-c2oc3c(CC=C(C)C)c(OC4OC(CO)C(O)C(O)C4O)cc(O)c3c(=O)c2OCCCO)cc1` (stereo not shown) [Compound 4, 3-O-(3-Hydroxypropyl)-Icariside I]: the IC50 in series [2] (setting [8]) was 800 ± 500 nM. For the same compound, the “fold decrease in potency compared to the corresponding unglycosylated compound 7” value in series [2] (4 vs 7) is given as 6 fold. Also, in series [2], the “Fold improved potency (fold change in IC50 compared to icariin)” value amounted to 8 fold. In addition, the viability at 3 days in series [3] is at most 70%.
Regarding `COc1ccc(-c2oc3c(CC=C(C)C)c(O)cc(O)c3c(=O)c2O)cc1` [Compound 9, Icaritin], in series [2], the IC50 came to 1800 ± 800 nM and the “Fold improved potency (fold change in IC50 compared to icariin)” value is recorded as 3 fold. In addition, in series [4], the “inhibition of trypsin activity” value is given as “statistically significant inhibition of trypsin activity (p<0.05)”.

What is called IC50 is the concentration needed to halve the response being measured. The term viability denotes the share of living cells, or the viability signal relative to a control. Low values mean more harm to the cells, high ones less harm to the cells.
